In brackets after ≈: the same amount, converted by molar mass. Numbered stars: 1 amine (or outer) side, 2 acyl side, 3 side chain; on linkers, the order of the positions; unused ones are H or OH. Bridge positions count the residues as written; N and C are the ends. Square brackets hold non-standard residues; d marks the D form. Peptide text beside a SMILES is read from it. I, II: the chains in the order shown. X1 = C[C@@H](CNC(=O)[*:1])N[*:2]; Nle = CCCC[C@H](N)C(=O)O
How the values were obtained:
[1] = Solubility of glucagon analogs (UV absorbance); type: physicochemical; conditions: for solubility: 0.01M HCl solution adjusted to pH 7 with Na2HPO4, pH 7, pH adjusted to 7 with Na2HPO4, incubated overnight at 4° C.; for ratio (solubility relative to reference compound 16): relative to compound 16;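 for all read-outs here: peptide stock at 3 mg/ml in 0.01 M HCl, absorbance at 280 nm read before neutralization and again on the diluted supernatant after centrifugation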
Procedure: A solution of 3 mg/ml of glucagon (or analog) was prepared in a 0.01M HCl solution. Then 0.1 ml of the stock solution was diluted to 1 ml with HCl (0.01M) and the UV absorbance measured (to 280 nm) with nanodrop UV spectrometer. The pH of the remaining stock solution was adjusted to 7 using Na2HPO4, and the solution was incubated overnight at 4° C. The solution was then centrifuged three times (5 minutes, 4000 rotations per minute), 0.1 ml of the supernatant was removed and diluted to 1 ml with HCl solution (0.01M).
The final UV absorbance was measured.

human glucagon receptor = molecular target: T1, human glucagon receptor (Homo sapiens, UniProt P47871); test: Glucagon functional assay: agonist activity by cAMP production (HTRF) in transfected CHO cells; type: cell-based; conditions: for EC50: cAMP production, transfected CHO cells, 10 minutes at 37° C.
T1 construct: expressed in transfected cells; host or cells: CHO cells
Procedure: Functional Assay to Examine Bioactivity of Glucagon Receptor Agonists. Evaluation of the agonist activity of compounds at the human glucagon receptor expressed in transfected CHO cells was examined by measuring their effects on cAMP production using the HTRF detection method. […] For stimulated control measurement, separate assay wells contain 100 nM glucagon were utilized.
Following incubation, the cells were lysed and the fluorescence acceptor (D2-labeled cAMP) and fluorescence donor (anti-cAMP antibody labeled with europium cryptate) were added. […] The results are expressed as a percent of the control response to 100 nM glucagon. The standard reference agonist is glucagon, which was tested in each experiment at several concentrations to generate a concentration-response curve from which its EC50 value was calculated.
HTRF (Homogeneous Time-Resolved Fluorescence) principle. The HTRF technology is based on time resolved fluorescence energy transfer (TR-FRET), which occurs between long-lived fluorophore Europium or Terbium Cryptates, and EuK or Tb respectively, as a donor and the allophycocyanin XL665, d2 or Red as acceptor. Many compounds and proteins present in biological fluids or serum are naturally fluorescent, and the use of conventional, prompt fluorescence leads to serious limitations in assay sensitivity. The use of long-lived fluorophore combined with time-resolved detection (a delay between excitation and emission detection) minimizes prompt fluorescence interference.

T1 sequence (P47871 26-477): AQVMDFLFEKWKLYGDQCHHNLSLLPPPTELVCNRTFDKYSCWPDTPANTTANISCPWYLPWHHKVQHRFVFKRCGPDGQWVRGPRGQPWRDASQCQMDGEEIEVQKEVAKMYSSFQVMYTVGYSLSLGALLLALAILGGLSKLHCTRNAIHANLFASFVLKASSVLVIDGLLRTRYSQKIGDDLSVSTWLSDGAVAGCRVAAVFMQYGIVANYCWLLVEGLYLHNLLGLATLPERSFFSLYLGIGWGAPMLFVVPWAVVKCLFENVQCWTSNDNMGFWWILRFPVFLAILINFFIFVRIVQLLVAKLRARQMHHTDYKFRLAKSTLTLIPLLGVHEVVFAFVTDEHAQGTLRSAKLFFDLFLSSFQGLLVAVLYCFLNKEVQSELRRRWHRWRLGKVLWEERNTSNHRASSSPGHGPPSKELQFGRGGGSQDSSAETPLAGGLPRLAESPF

Row | Structure (SMILES) | solubility [1] [µg/mL] | ratio (solubility relative to reference compound 16) [1] | EC50 (human glucagon receptor) [nM] | % bioactivity of reference, GCG-R (human glucagon receptor; Reference Compound 16) [%]
1 | CC(C)C[C@H](NC(=O)[C@H](Cc1ccc(O)cc1)NC(=O)[C@H](CCCCN)NC(=O)[C@H](CO)NC(=O)[C@H](Cc1ccc(O)cc1)NC(=O)[C@H](CC(=O)O)NC(=O)[C@H](CO)NC(=O)[C@@H](NC(=O)[C@H](Cc1ccccc1)NC(=O)[C@@H](NC(=O)CNC(=O)[C@H](CCC(N)=O)NC(=O)[C@H](CO)NC(=O)[C@@H](N)Cc1c[nH]cn1)[C@@H](C)O)[C@@H](C)O)C(=O)N[C@@H](CC(=O)O)C(=O)N[C@@H](CO)C(=O)N[C@@H](CCCNC(=N)N)C(=O)N[C@@H](CCCNC(=N)N)C(=O)N[C@@H](C)C(=O)N[C@@H](CCC(N)=O)C(=O)N[C@@H](CC(=O)O)C(=O)N[C@@H](Cc1ccccc1)C(=O)N[C@H](C(=O)N[C@@H](CCC(N)=O)C(=O)N[C@@H](Cc1c[nH]c2ccccc12)C(=O)N[C@@H](CC(C)C)C(=O)N[C@@H](C)CNC(=O)N[C@@H](CC(N)=O)C(=O)N[C@H](C(=O)O)[C@@H](C)O)C(C)C [Compound 34] | 860 (≈ 249 µM) | 3.4 | 2.5 | 
2 | CCCC[C@H](NC(=O)[C@H](CC(C)C)NC(=O)[C@H](Cc1c[nH]c2ccccc12)NC(=O)[C@H](CCC(N)=O)NC(=O)[C@@H](NC(=O)[C@H](Cc1ccccc1)NC(=O)[C@H](CC(=O)O)NC(=O)[C@H](CCC(N)=O)NC(=O)[C@H](C)NC(=O)[C@H](CCCNC(=N)N)NC(=O)[C@H](CCCNC(=N)N)NC(=O)[C@H](CO)NC(=O)[C@H](CC(=O)O)NC(=O)[C@H](CC(C)C)NC(=O)[C@H](Cc1ccc(O)cc1)NC(=O)[C@H](CCCCN)NC(=O)[C@H](CO)NC(=O)[C@H](Cc1ccc(O)cc1)NC(=O)[C@H](CC(=O)O)NC(=O)[C@H](CO)NC(=O)[C@@H](NC(=O)[C@H](Cc1ccccc1)NC(=O)[C@@H](NC(=O)CNC(=O)[C@H](CCC(N)=O)NC(=O)[C@H](CO)NC(=O)[C@@H](N)Cc1c[nH]cn1)[C@@H](C)O)[C@@H](C)O)C(C)C)C(=O)N[C@@H](C)CNC(=O)N[C@H](C(=O)O)[C@@H](C)O [Compound 35] |  |  | 0.44 | 
3 | CCCC[C@H](NC(=O)[C@H](CC(C)C)NC(=O)[C@H](Cc1c[nH]c2ccccc12)NC(=O)[C@H](CCC(N)=O)NC(=O)[C@@H](NC(=O)[C@H](Cc1ccccc1)NC(=O)[C@H](CC(=O)O)NC(=O)[C@H](CCC(N)=O)NC(=O)[C@H](C)NC(=O)[C@H](CCCNC(=N)N)NC(=O)[C@H](CCCNC(=N)N)NC(=O)[C@H](CO)NC(=O)[C@H](CC(=O)O)NC(=O)[C@H](CC(C)C)NC(=O)[C@H](Cc1ccc(O)cc1)NC(=O)[C@H](CCCCN)NC(=O)[C@H](CO)NC(=O)[C@H](Cc1ccc(O)cc1)NC(=O)[C@H](CC(=O)O)NC(=O)[C@H](CO)NC(=O)[C@@H](NC(=O)[C@H](Cc1ccccc1)NC(=O)[C@@H](NC(=O)CNC(=O)[C@H](CCC(N)=O)NC(=O)[C@H](CO)NC(=O)[C@@H](N)Cc1c[nH]cn1)[C@@H](C)O)[C@@H](C)O)C(C)C)C(=O)N[C@@H](CC(N)=O)C(=O)N[C@@H](C)CNC(N)=O [Compound 36] |  |  | 0.026 | 246
4 | CCCC[C@H](NC(=O)[C@H](CC(C)C)NC(=O)[C@H](Cc1c[nH]c2ccccc12)NC(=O)[C@H](CCC(N)=O)NC(=O)[C@@H](NC(=O)[C@H](Cc1ccccc1)NC(=O)[C@H](CC(=O)O)NC(=O)[C@H](CCC(N)=O)NC(=O)[C@H](C)NC(=O)[C@H](CCCNC(=N)N)NC(=O)[C@H](CCCNC(=N)N)NC(=O)[C@H](CO)NC(=O)[C@H](CC(=O)O)NC(=O)NC[C@H](C)NC(=O)[C@H](Cc1ccc(O)cc1)NC(=O)[C@H](CCCCN)NC(=O)[C@H](CO)NC(=O)[C@H](Cc1ccc(O)cc1)NC(=O)[C@H](CC(=O)O)NC(=O)[C@H](CO)NC(=O)[C@@H](NC(=O)[C@H](Cc1ccccc1)NC(=O)[C@@H](NC(=O)CNC(=O)[C@H](CCC(N)=O)NC(=O)[C@H](CO)NC(=O)[C@@H](N)Cc1c[nH]cn1)[C@@H](C)O)[C@@H](C)O)C(C)C)C(=O)N[C@@H](CC(N)=O)C(=O)N[C@H](C(=O)O)[C@@H](C)O [Compound 51] (I: DSRRAQDFVQWL[Nle]NT-OH / II: H-HSQGTFTSDYSKY; linker I:N-II:C via X1; C-terminus assumed) | 560 (≈ 162 µM) | 2.2 | 68 | 
5 | CCCC[C@H](NC(=O)[C@H](CC(C)C)NC(=O)[C@H](Cc1c[nH]c2ccccc12)NC(=O)[C@H](CCC(N)=O)NC(=O)[C@@H](NC(=O)[C@H](Cc1ccccc1)NC(=O)[C@H](CC(=O)O)NC(=O)[C@H](CCC(N)=O)NC(=O)[C@H](C)NC(=O)[C@H](CCCNC(=N)N)NC(=O)[C@H](CCCNC(=N)N)NC(=O)NC[C@H](C)NC(=O)[C@H](CC(=O)O)NC(=O)[C@H](CC(C)C)NC(=O)[C@H](Cc1ccc(O)cc1)NC(=O)[C@H](CCCCN)NC(=O)[C@H](CO)NC(=O)[C@H](Cc1ccc(O)cc1)NC(=O)[C@H](CC(=O)O)NC(=O)[C@H](CO)NC(=O)[C@@H](NC(=O)[C@H](Cc1ccccc1)NC(=O)[C@@H](NC(=O)CNC(=O)[C@H](CCC(N)=O)NC(=O)[C@H](CO)NC(=O)[C@@H](N)Cc1c[nH]cn1)[C@@H](C)O)[C@@H](C)O)C(C)C)C(=O)N[C@@H](CC(N)=O)C(=O)N[C@H](C(=O)O)[C@@H](C)O [Compound 52] | 490 (≈ 141 µM) | 1.9 | 34 | 
6 | CCCC[C@H](NC(=O)[C@H](CC(C)C)NC(=O)[C@H](Cc1c[nH]c2ccccc12)NC(=O)[C@H](CCC(N)=O)NC(=O)[C@@H](NC(=O)[C@H](Cc1ccccc1)NC(=O)[C@H](CC(=O)O)NC(=O)[C@H](CCC(N)=O)NC(=O)[C@H](C)NC(=O)[C@H](CCCNC(=N)N)NC(=O)NC[C@H](C)NC(=O)[C@H](CO)NC(=O)[C@H](CC(=O)O)NC(=O)[C@H](CC(C)C)NC(=O)[C@H](Cc1ccc(O)cc1)NC(=O)[C@H](CCCCN)NC(=O)[C@H](CO)NC(=O)[C@H](Cc1ccc(O)cc1)NC(=O)[C@H](CC(=O)O)NC(=O)[C@H](CO)NC(=O)[C@@H](NC(=O)[C@H](Cc1ccccc1)NC(=O)[C@@H](NC(=O)CNC(=O)[C@H](CCC(N)=O)NC(=O)[C@H](CO)NC(=O)[C@@H](N)Cc1c[nH]cn1)[C@@H](C)O)[C@@H](C)O)C(C)C)C(=O)N[C@@H](CC(N)=O)C(=O)N[C@H](C(=O)O)[C@@H](C)O [Compound 53] | 580 (≈ 170 µM) | 2.3 | 0.67 | 
7 | CCCC[C@H](NC(=O)[C@H](CC(C)C)NC(=O)[C@H](Cc1c[nH]c2ccccc12)NC(=O)[C@H](CCC(N)=O)NC(=O)[C@@H](NC(=O)[C@H](Cc1ccccc1)NC(=O)[C@H](CC(=O)O)NC(=O)[C@H](CCC(N)=O)NC(=O)NC[C@H](C)NC(=O)[C@H](CCCNC(=N)N)NC(=O)[C@H](CCCNC(=N)N)NC(=O)[C@H](CO)NC(=O)[C@H](CC(=O)O)NC(=O)[C@H](CC(C)C)NC(=O)[C@H](Cc1ccc(O)cc1)NC(=O)[C@H](CCCCN)NC(=O)[C@H](CO)NC(=O)[C@H](Cc1ccc(O)cc1)NC(=O)[C@H](CC(=O)O)NC(=O)[C@H](CO)NC(=O)[C@@H](NC(=O)[C@H](Cc1ccccc1)NC(=O)[C@@H](NC(=O)CNC(=O)[C@H](CCC(N)=O)NC(=O)[C@H](CO)NC(=O)[C@@H](N)Cc1c[nH]cn1)[C@@H](C)O)[C@@H](C)O)C(C)C)C(=O)N[C@@H](CC(N)=O)C(=O)N[C@H](C(=O)O)[C@@H](C)O [Compound 54] | 630 (≈ 180 µM) | 2.5 | 32 | 
8 | CCCC[C@H](NC(=O)[C@H](CC(C)C)NC(=O)[C@H](Cc1c[nH]c2ccccc12)NC(=O)[C@H](CCC(N)=O)NC(=O)NC[C@H](C)NC(=O)[C@H](Cc1ccccc1)NC(=O)[C@H](CC(=O)O)NC(=O)[C@H](CCC(N)=O)NC(=O)[C@H](C)NC(=O)[C@H](CCCNC(=N)N)NC(=O)[C@H](CCCNC(=N)N)NC(=O)[C@H](CO)NC(=O)[C@H](CC(=O)O)NC(=O)[C@H](CC(C)C)NC(=O)[C@H](Cc1ccc(O)cc1)NC(=O)[C@H](CCCCN)NC(=O)[C@H](CO)NC(=O)[C@H](Cc1ccc(O)cc1)NC(=O)[C@H](CC(=O)O)NC(=O)[C@H](CO)NC(=O)[C@@H](NC(=O)[C@H](Cc1ccccc1)NC(=O)[C@@H](NC(=O)CNC(=O)[C@H](CCC(N)=O)NC(=O)[C@H](CO)NC(=O)[C@@H](N)Cc1c[nH]cn1)[C@@H](C)O)[C@@H](C)O)C(=O)N[C@@H](CC(N)=O)C(=O)N[C@H](C(=O)O)[C@@H](C)O [Compound 55] | 1390 (≈ 401 µM) | 5.5 | 34 | 
9 | CCCC[C@H](NC(=O)[C@H](CC(C)C)NC(=O)[C@H](Cc1c[nH]c2ccccc12)NC(=O)NC[C@H](C)NC(=O)[C@@H](NC(=O)[C@H](Cc1ccccc1)NC(=O)[C@H](CC(=O)O)NC(=O)[C@H](CCC(N)=O)NC(=O)[C@H](C)NC(=O)[C@H](CCCNC(=N)N)NC(=O)[C@H](CCCNC(=N)N)NC(=O)[C@H](CO)NC(=O)[C@H](CC(=O)O)NC(=O)[C@H](CC(C)C)NC(=O)[C@H](Cc1ccc(O)cc1)NC(=O)[C@H](CCCCN)NC(=O)[C@H](CO)NC(=O)[C@H](Cc1ccc(O)cc1)NC(=O)[C@H](CC(=O)O)NC(=O)[C@H](CO)NC(=O)[C@@H](NC(=O)[C@H](Cc1ccccc1)NC(=O)[C@@H](NC(=O)CNC(=O)[C@H](CCC(N)=O)NC(=O)[C@H](CO)NC(=O)[C@@H](N)Cc1c[nH]cn1)[C@@H](C)O)[C@@H](C)O)C(C)C)C(=O)N[C@@H](CC(N)=O)C(=O)N[C@H](C(=O)O)[C@@H](C)O [Compound 56] | 700 (≈ 204 µM) | 2.8 | 0.072 | 
